Measured values reported in ChEMBL document CHEMBL1201862, “PubChem BioAssay data set” (2004).
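Grown in 96-well plates, cells were treated for 48 hours with each compound at five concentrations. Insufficient inhibition: endpoint recorded as highest concentration tested. At the GI50, growth is halved.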 Active and inactive are the calls of the source. Cut-off read from the data, not from the text of the source: active = GI50 up to about 1.1 µM and inactive = higher.

Columns and labels:
Test in all cases: inhibition of tumour cell growth, NCI panel, 48 h
[1] = system: BT-549
[2] = system: TK-10
[3] = system: Malme-3M
[4] = system: OVCAR-4
[5] = system: UACC-257
[6] = system: NCI-H23
[7] = system: HCT-116
[8] = system: SR
[9] = system: MCF7
[10] = system: LOX IMVI
[11] = system: SK-MEL-2
[12] = system: KM-20L2
[13] = system: K562
[14] = system: SK-MEL-5
[15] = system: MDA-MB-435
[16] = system: PC-3
[17] = system: HCC 2998
[18] = system: U-251
[19] = system: NCI/ADR-RES

Measured: GI50

COc1ccc(/C(Cl)=C(\C=O)c2ccc(OC)c(OC)c2)cc1OC
inactive: [1] > 100 µM | [2] > 100 µM | [3] 56.5 µM | [4] 63.8 µM | [5] 41.7 µM | [6] 76.6 µM | [7] > 91.4 µM | [8] > 100 µM | [9] 56.8 µM | [10] 33.7 µM | [11] 94.4 µM | [12] > 100 µM | [13] > 100 µM | [14] > 81.7 µM | [15] > 100 µM | [16] > 100 µM | [17] > 97.1 µM | [18] > 100 µM | [19] > 91.4 µM
